Patent EP4786487A1, “PEPTIDE” (Peptidream Inc, priority 2023, dated 2025)
Like-named read-outs stand apart in the source and are kept apart here. Starred links: 1 amine or outer side, 2 acyl side, 3 side chain; linkers in the order of their positions; H or OH if unused. Positions of bridges follow the written chain, without caps; N, C: chain ends. Non-standard residues stand in square brackets, D forms with d. Residues, ends and D or L forms follow the SMILES beside them. *: point of attachment. X10 = O=C([C@H](Cc1cn(Cc2ccccc2)c2ccccc12)N[*:1])[*:2]; Phe(3-OCH2COOH) = N[C@@H](Cc1cccc(OCC(=O)O)c1)C(=O)O; NMePhe(3-Ph) = CN[C@@H](Cc1cccc(-c2ccccc2)c1)C(=O)O; X2 = CC(=O)N1CCC(C[C@@H](C(=O)[*:2])N(C)[*:1])CC1; Phe(4-COOH) = N[C@@H](Cc1ccc(C(=O)O)cc1)C(=O)O; NMePhe(4-Cl) = CN[C@@H](Cc1ccc(Cl)cc1)C(=O)O; Piperazinyl(4-CH2COOH) = O=C(O)CN1CCN(*)CC1; Piperidinyl(4-CH2COOH) = O=C(O)CC1CCN(*)CC1; NMe2Nal = CN[C@@H](Cc1ccc2ccccc2c1)C(=O)O; NMeY = CN[C@@H](Cc1ccc(O)cc1)C(=O)O; X1 = CCCCCCC[C@H](N[*:1])C(=O)[*:2]; NMeF = CN[C@@H](Cc1ccccc1)C(=O)O; NMeE = CN[C@@H](CCC(=O)O)C(=O)O; NMeA = CN[C@@H](C)C(=O)O; Propyl(3-NH2) = NCCC*; Sar = CNCC(=O)O

Key:
GDF-11 = molecular target: T1, GDF-11 (Homo sapiens, UniProt O95390); experiment: HepG2 reporter gene assay, Evaluation Procedure (2): 2-concentrations assay, GDF-11 inhibition; format: cell-based; settings: for inhibition at 0.03 µM: HepG2, peptide 30nM, read-out: GDF11 Inhibition 30nM; for inhibition at 0.03 µM / inhibition at 0.1 µM: GDF-11 10 ng/mL; for inhibition at 0.1 µM: HepG2, peptide 100nM, read-out: GDF11 Inhibition 100nM; for inhibition: read-out: inhibition rate (GDF-11 inhibition assay)
T1 construct: purchased R&D systems 1958-GD-G8/CF
T1 sequence (O95390 299-407): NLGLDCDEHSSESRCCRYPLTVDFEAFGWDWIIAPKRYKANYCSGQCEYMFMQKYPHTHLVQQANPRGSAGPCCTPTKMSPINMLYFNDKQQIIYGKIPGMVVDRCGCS
In short: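 HepG2 cells carrying the transfected pGL3(CAGA)12-luc reporter, a pGL3 vector with luciferase placed downstream of 12 CAGA repeats, were stimulated with GDF-11 at a final 10 ng/mL together with test peptide. Blank wells received no GDF-11 and no peptide. Plates were incubated 20 to 24 hours at 37°C with 5% CO2. Luminescence from One-Glo substrate was read to calculate percent inhibition.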

Myostatin = molecular target: T2, Myostatin (Homo sapiens, UniProt O14793); experiment: HepG2 reporter gene assay, Evaluation Procedure (2): 2-concentrations assay, myostatin inhibition; format: cell-based; settings: HepG2
T2 construct: active myostatin (also called mature myostatin) is a homodimer consisting of two C-terminal growth factor domains; purchased R&D systems 788-G8/CF
T2 sequence (O14793 267-375): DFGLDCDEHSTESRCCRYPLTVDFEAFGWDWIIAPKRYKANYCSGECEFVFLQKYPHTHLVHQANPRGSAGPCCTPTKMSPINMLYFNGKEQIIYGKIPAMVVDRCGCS
In short: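 HepG2 cells (HB-8065, ATCC) carrying the transfected pGL3(CAGA)12-luc reporter plasmid were treated with myostatin (788-G8/CF, R&D systems) at a final concentration of 10 ng/mL plus peptide and incubated at 37°C, 5% CO2 for 20 to 24 hours. Luminescence was read after adding PBS mixed 1:1 with One-Glo substrate, and inhibition rate was calculated.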

[1] = peptide 30nM, Myostatin 10 ng/mL, read-out: Myostatin Inhibition 30nM
[2] = peptide 100nM, Myostatin 10 ng/mL, read-out: Myostatin Inhibition 100nM
[3] = HepG2, first GDF-11 column of Table 7-3/7-4, GDF-11 10 ng/mL, peptide at the lower of the 2 concentrations
[4] = HepG2, second GDF-11 column of Table 7-3/7-4, GDF-11 10 ng/mL, peptide at the higher of the 2 concentrations
[5] = Table 7-3/7-4, myostatin 10 ng/mL, peptide at the higher of the 2 concentrations, read-out: inhibition rate (myostatin inhibition assay)
[6] = Table 7-3/7-4, myostatin 10 ng/mL, peptide at the lower of the 2 concentrations, read-out: inhibition rate (myostatin inhibition assay)

| inhibition at 0.03 µM (GDF-11) | inhibition at 0.1 µM (GDF-11) | inhibition at 0.03 µM (Myostatin; [1]) | inhibition at 0.1 µM (Myostatin; [2]) | inhibition (GDF-11; [3]) | inhibition (GDF-11; [4]) | inhibition at 0.1 µM (Myostatin; [5]) | inhibition at 0.03 µM (Myostatin; [6]) | Compound |
| --- | --- | --- | --- | --- | --- | --- | --- | --- |
| 0% | 0% | 99% | 100% | – | – | – | – | CCCCCCC[C@@H]1NC(=O)[C@H](Cc2ccccc2)N(C)C(=O)[C@H](CCCNC(=N)N)NC(=O)[C@H](Cc2ccc(C(=O)O)cc2)NC(=O)[C@H](Cc2cccc(OCC(=O)O)c2)NC(=O)CN(C)C(=O)[C@H]([C@@H](C)CC)NC(=O)[C@H](Cc2ccc(OCCCN)cc2)N(C)C(=O)[C@H](Cc2ccc(O)cc2)NC(=O)[C@H](Cc2c[nH]c3ccccc23)NC(=O)[C@H](C)NC(=O)[C@H](C)NC(=O)CSC[C@H](C(=O)N2CCN(CC(=O)O)CC2)NC(=O)[C@H](Cc2ccccc2)N(C)C(=O)[C@H](C)N(C)C1=O [Myostatin_99_v302] ({CH2CO}-AAWY[NMeY](Propyl(3-NH2))I[Sar][Phe(3-OCH2COOH)][Phe(4-COOH)]R[NMeF][X1][NMeA][NMeF][dC]-{Piperazinyl(4-CH2COOH)}; thioether N-15) |
| 39% | 67% | 100% | 100% | – | – | – | – | CCCCCCC[C@@H]1NC(=O)[C@H](Cc2ccccc2)N(C)C(=O)[C@H](CCCNC(=N)N)NC(=O)[C@H](Cc2ccc(C(=O)O)cc2)NC(=O)[C@H](Cc2cccc(OCC(=O)O)c2)NC(=O)CN(C)C(=O)[C@H]([C@@H](C)CC)NC(=O)[C@H](CC2CCN(C(C)=O)CC2)N(C)C(=O)[C@H](Cc2ccc(O)cc2)NC(=O)[C@H](Cc2c[nH]c3ccccc23)NC(=O)[C@H](C)NC(=O)[C@H](C)NC(=O)CSC[C@H](C(=O)N2CCN(CC(=O)O)CC2)NC(=O)[C@H](Cc2ccccc2)N(C)C(=O)[C@H](C)N(C)C1=O [Myostatin_99_v303] ({CH2CO}-AAWY[X2]I[Sar][Phe(3-OCH2COOH)][Phe(4-COOH)]R[NMeF][X1][NMeA][NMeF][dC]-{Piperazinyl(4-CH2COOH)}; thioether N-15) |
| 0% | 0% | 74% | 88% | – | – | – | – | CCCCCCC[C@@H]1NC(=O)[C@H](Cc2ccccc2)N(C)C(=O)[C@H](CCCNC(=N)N)NC(=O)[C@H](Cc2ccc(C(=O)O)cc2)NC(=O)[C@H](Cc2cccc(OCC(=O)O)c2)NC(=O)CN(C)C(=O)[C@H]([C@@H](C)CC)NC(=O)[C@H](Cc2cccc(-c3ccccc3)c2)N(C)C(=O)[C@H](Cc2ccc(O)cc2)NC(=O)[C@H](Cc2c[nH]c3ccccc23)NC(=O)[C@H](C)NC(=O)[C@H](C)NC(=O)CSC[C@H](C(=O)N2CCN(CC(=O)O)CC2)NC(=O)[C@H](Cc2ccccc2)N(C)C(=O)[C@H](C)N(C)C1=O [Myostatin_99_v304] ({CH2CO}-AAWY[NMePhe(3-Ph)]I[Sar][Phe(3-OCH2COOH)][Phe(4-COOH)]R[NMeF][X1][NMeA][NMeF][dC]-{Piperazinyl(4-CH2COOH)}; thioether N-15) |
| – | – | – | – | 0% | 0% | 94% | 80% | CCCCCCC[C@@H]1NC(=O)[C@H](Cc2ccccc2)N(C)C(=O)[C@H](CCCNC(=N)N)NC(=O)[C@H](Cc2ccc(C(=O)O)cc2)NC(=O)[C@H](Cc2cccc(OCC(=O)O)c2)NC(=O)CN(C)C(=O)[C@H]([C@@H](C)CC)NC(=O)[C@H](Cc2ccc3ccccc3c2)N(C)C(=O)[C@H](Cc2ccc(O)cc2)NC(=O)[C@H](Cc2c[nH]c3ccccc23)NC(=O)[C@H](C)NC(=O)[C@H](C)NC(=O)CSC[C@H](C(=O)N2CCN(CC(=O)O)CC2)NC(=O)[C@H](Cc2ccccc2)N(C)C(=O)[C@H](C)N(C)C1=O [Myostatin_99_v306] ({CH2CO}-AAWY[NMe2Nal]I[Sar][Phe(3-OCH2COOH)][Phe(4-COOH)]R[NMeF][X1][NMeA][NMeF][dC]-{Piperazinyl(4-CH2COOH)}; thioether N-15) |
| – | – | – | – | 0% | 12% | 98% | 89% | CCCCCCC[C@@H]1NC(=O)[C@H](Cc2ccccc2)N(C)C(=O)[C@H](CCCNC(=N)N)NC(=O)[C@H](Cc2ccc(C(=O)O)cc2)NC(=O)[C@H](Cc2cccc(OCC(=O)O)c2)NC(=O)CN(C)C(=O)[C@H]([C@@H](C)CC)NC(=O)[C@H](Cc2ccc(OC)cc2)N(C)C(=O)[C@H](Cc2ccc(O)cc2)NC(=O)[C@H](Cc2c[nH]c3ccccc23)NC(=O)[C@H](C)NC(=O)[C@H](C)NC(=O)CSC[C@H](C(=O)N2CCN(CC(=O)O)CC2)NC(=O)[C@H](Cc2ccccc2)N(C)C(=O)[C@H](C)N(C)C1=O [Myostatin_99_v307] ({CH2CO}-AAWY[NMeY](Me)I[Sar][Phe(3-OCH2COOH)][Phe(4-COOH)]R[NMeF][X1][NMeA][NMeF][dC]-{Piperazinyl(4-CH2COOH)}; thioether N-15) |
| – | – | – | – | 0% | 3% | 97% | 87% | CCCCCCC[C@@H]1NC(=O)[C@H](Cc2ccccc2)N(C)C(=O)[C@H](CCCNC(=N)N)NC(=O)[C@H](Cc2ccc(C(=O)O)cc2)NC(=O)[C@H](Cc2cccc(OCC(=O)O)c2)NC(=O)CN(C)C(=O)[C@H]([C@@H](C)CC)NC(=O)[C@H](Cc2ccc(Cl)cc2)N(C)C(=O)[C@H](Cc2ccc(O)cc2)NC(=O)[C@H](Cc2c[nH]c3ccccc23)NC(=O)[C@H](C)NC(=O)[C@H](C)NC(=O)CSC[C@H](C(=O)N2CCN(CC(=O)O)CC2)NC(=O)[C@H](Cc2ccccc2)N(C)C(=O)[C@H](C)N(C)C1=O [Myostatin_99_v308] ({CH2CO}-AAWY[NMePhe(4-Cl)]I[Sar][Phe(3-OCH2COOH)][Phe(4-COOH)]R[NMeF][X1][NMeA][NMeF][dC]-{Piperazinyl(4-CH2COOH)}; thioether N-15) |
| – | – | – | – | 0% | 5% | 100% | 99% | CCCCCCC[C@@H]1NC(=O)[C@H](Cc2ccccc2)N(C)C(=O)[C@H](CCCNC(=N)N)NC(=O)[C@H](Cc2ccc(C(=O)O)cc2)NC(=O)[C@H](Cc2cccc(OCC(=O)O)c2)NC(=O)CN(C)C(=O)[C@H]([C@@H](C)CC)NC(=O)[C@H](Cc2ccccc2)N(C)C(=O)[C@H](Cc2ccc(O)cc2)NC(=O)[C@H](Cc2c[nH]c3ccccc23)NC(=O)[C@H](C)NC(=O)[C@H](C)NC(=O)CSC[C@H](C(=O)N2CCN(CC(=O)O)CC2)NC(=O)[C@H](Cc2ccccc2)N(C)C(=O)[C@H](CCC(=O)O)N(C)C1=O [Myostatin_99_v311] ({CH2CO}-AAWY[NMeF]I[Sar][Phe(3-OCH2COOH)][Phe(4-COOH)]R[NMeF][X1][NMeE][NMeF][dC]-{Piperazinyl(4-CH2COOH)}; thioether N-15) |
| – | – | – | – | 0% | 6% | 100% | 98% | CCCCCCC[C@@H]1NC(=O)[C@H](Cc2ccccc2)N(C)C(=O)[C@H](CCCNC(=N)N)NC(=O)[C@H](Cc2ccc(C(=O)O)cc2)NC(=O)[C@H](Cc2cccc(OCC(=O)O)c2)NC(=O)CN(C)C(=O)[C@H]([C@@H](C)CC)NC(=O)[C@H](Cc2ccccc2)N(C)C(=O)[C@H](Cc2ccc(O)cc2)NC(=O)[C@H](Cc2cn(Cc3ccccc3)c3ccccc23)NC(=O)[C@H](C)NC(=O)[C@H](C)NC(=O)CSC[C@H](C(=O)N2CCN(CC(=O)O)CC2)NC(=O)[C@H](Cc2ccccc2)N(C)C(=O)[C@H](C)N(C)C1=O [Myostatin_99_v312] ({CH2CO}-AA[X10]Y[NMeF]I[Sar][Phe(3-OCH2COOH)][Phe(4-COOH)]R[NMeF][X1][NMeA][NMeF][dC]-{Piperazinyl(4-CH2COOH)}; thioether N-15) |
| – | – | – | – | 12% | 40% | 100% | 100% | CCCCCCC[C@@H]1NC(=O)[C@H](Cc2ccccc2)N(C)C(=O)[C@H](CCCNC(=N)N)NC(=O)[C@H](Cc2ccc(C(=O)O)cc2)NC(=O)[C@H](Cc2cccc(OCC(=O)O)c2)NC(=O)CN(C)C(=O)[C@H]([C@@H](C)CC)NC(=O)[C@H](Cc2ccccc2)N(C)C(=O)[C@H](Cc2ccc(O)cc2)NC(=O)[C@H](Cc2c[nH]c3ccccc23)NC(=O)[C@H](C)NC(=O)[C@H](C)NC(=O)CSC[C@H](C(=O)N2CCC(CC(=O)O)CC2)NC(=O)[C@H](Cc2ccccc2)N(C)C(=O)[C@H](C)N(C)C1=O [Myostatin_99_v313] ({CH2CO}-AAWY[NMeF]I[Sar][Phe(3-OCH2COOH)][Phe(4-COOH)]R[NMeF][X1][NMeA][NMeF][dC]-{Piperidinyl(4-CH2COOH)}; thioether N-15) |
